Data as given in paper PMC6593727 (Clinical Pharmacology in Drug Development, 2019).
Like-named read-outs stand apart in the source and are kept apart here.

Legend:
[1] = target: T1, CYP2C8 (Homo sapiens, UniProt P10632); test: In vitro CYP inhibition studies in human liver microsomes using probe substrates; format: biochemical; conditions: for R value (FDA): R = 1 + (total Cmax/Ki); for R value (EMA): R = unbound Cmax/Ki
T1 sequence (P10632 1-490): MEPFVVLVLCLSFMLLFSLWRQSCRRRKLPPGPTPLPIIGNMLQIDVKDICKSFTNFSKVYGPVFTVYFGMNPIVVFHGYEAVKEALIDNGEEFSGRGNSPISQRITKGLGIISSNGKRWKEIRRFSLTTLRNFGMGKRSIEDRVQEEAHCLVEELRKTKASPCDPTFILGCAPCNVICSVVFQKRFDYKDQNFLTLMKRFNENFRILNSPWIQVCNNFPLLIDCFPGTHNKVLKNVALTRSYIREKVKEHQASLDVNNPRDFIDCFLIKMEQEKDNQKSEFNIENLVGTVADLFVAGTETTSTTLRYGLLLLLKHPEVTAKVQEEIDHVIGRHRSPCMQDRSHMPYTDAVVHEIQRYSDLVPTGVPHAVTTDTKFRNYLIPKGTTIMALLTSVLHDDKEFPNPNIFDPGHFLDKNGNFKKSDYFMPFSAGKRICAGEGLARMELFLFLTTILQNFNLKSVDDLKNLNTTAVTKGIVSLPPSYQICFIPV

[2] = target: T2, CYP2C9 (Homo sapiens, UniProt P11712); test: as above; format: biochemical; conditions: for R value (FDA): R = 1 + (total Cmax/Ki); for R value (EMA): R = unbound Cmax/Ki
[3] = target: T3, CYP2C19 (Homo sapiens, UniProt P33261); test: as above; format: biochemical; conditions: for R value (FDA): R = 1 + (total Cmax/Ki); for R value (EMA): R = unbound Cmax/Ki
[4] = target: T4, CYP2D6 (Homo sapiens, UniProt P10635); test: as above; format: biochemical; conditions: for R value (FDA): R = 1 + (total Cmax/Ki); for R value (EMA): R = unbound Cmax/Ki
[5] = target: T5, CYP3A4 (Homo sapiens, UniProt P08684); test: as above; format: biochemical; conditions: for R value (FDA): R = 1 + (total Cmax/Ki); for R value (EMA): R = unbound Cmax/Ki
[6] = ASP8477 steady‐state plasma PK in the cocktail study; format: in vivo, human; conditions: for Ctrough: mean ± SD
[7] = test system: healthy female subjects; test: Safety and tolerability: adverse events; format: in vivo, human
[8] = Fraction of unbound ASP8477 in humans; format: in vitro ADME, human; conditions: independent of the clinical concentration range
[9] = test system: CYP enzymes; test: Induction of CYP enzymes in vitro; format: in vitro ADME
[10] = ref clinical studies, cited from earlier work
[11] = target: T2, CYP2C9; test: Inje cocktail DDI study: losartan and EXP‐3174 PK, assessment of CYP2C9 activity
[12] = target: T5, CYP3A4
[13] = target: T3, CYP2C19
[14] = target: T4, CYP2D6
[15] = female, human, plasma, oral, 20 mg
[16] = female, human, plasma, oral, 60 mg
[17] = female, human, plasma, oral, 100 mg

T3 sequence (P33261 whole entry): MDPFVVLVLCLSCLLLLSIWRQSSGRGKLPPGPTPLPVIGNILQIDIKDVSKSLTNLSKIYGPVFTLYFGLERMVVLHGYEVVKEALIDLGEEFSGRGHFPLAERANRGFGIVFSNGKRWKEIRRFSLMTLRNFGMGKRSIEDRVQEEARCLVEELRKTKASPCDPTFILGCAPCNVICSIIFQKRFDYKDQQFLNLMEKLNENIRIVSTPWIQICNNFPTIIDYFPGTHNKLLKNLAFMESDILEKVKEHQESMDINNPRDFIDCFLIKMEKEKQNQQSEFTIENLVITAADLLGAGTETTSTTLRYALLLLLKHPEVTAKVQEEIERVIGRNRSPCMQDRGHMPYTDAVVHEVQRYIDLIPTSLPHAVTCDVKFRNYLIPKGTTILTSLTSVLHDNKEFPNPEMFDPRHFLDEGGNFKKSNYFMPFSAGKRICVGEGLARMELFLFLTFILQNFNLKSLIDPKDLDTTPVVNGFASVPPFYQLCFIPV
T5 sequence (P08684 whole entry): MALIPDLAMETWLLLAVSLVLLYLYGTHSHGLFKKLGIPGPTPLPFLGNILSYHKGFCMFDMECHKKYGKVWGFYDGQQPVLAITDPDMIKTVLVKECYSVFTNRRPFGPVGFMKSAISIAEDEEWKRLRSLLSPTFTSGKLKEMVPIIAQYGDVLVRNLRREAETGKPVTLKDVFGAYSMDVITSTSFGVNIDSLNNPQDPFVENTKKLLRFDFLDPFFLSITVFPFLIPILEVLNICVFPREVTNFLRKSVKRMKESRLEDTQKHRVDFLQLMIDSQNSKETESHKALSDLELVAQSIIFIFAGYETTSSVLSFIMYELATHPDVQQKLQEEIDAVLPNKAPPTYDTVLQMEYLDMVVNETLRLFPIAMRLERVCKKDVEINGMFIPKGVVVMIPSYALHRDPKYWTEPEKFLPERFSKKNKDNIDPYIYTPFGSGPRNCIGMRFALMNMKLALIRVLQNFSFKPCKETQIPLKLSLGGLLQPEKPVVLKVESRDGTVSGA
T2 sequence (P11712 whole entry): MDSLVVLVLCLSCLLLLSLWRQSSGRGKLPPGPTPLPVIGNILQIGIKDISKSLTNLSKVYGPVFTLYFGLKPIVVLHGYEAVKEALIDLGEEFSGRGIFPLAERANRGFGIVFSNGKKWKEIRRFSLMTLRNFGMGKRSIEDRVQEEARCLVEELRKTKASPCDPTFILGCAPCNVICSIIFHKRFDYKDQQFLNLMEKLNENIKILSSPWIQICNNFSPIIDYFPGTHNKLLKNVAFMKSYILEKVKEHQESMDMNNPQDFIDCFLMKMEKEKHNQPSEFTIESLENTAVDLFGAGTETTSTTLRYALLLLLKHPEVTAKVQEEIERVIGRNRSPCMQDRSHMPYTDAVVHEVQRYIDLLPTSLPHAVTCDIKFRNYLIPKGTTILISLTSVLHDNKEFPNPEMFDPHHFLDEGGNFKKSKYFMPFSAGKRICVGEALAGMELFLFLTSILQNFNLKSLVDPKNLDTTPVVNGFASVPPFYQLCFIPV
T4 sequence (P10635 whole entry): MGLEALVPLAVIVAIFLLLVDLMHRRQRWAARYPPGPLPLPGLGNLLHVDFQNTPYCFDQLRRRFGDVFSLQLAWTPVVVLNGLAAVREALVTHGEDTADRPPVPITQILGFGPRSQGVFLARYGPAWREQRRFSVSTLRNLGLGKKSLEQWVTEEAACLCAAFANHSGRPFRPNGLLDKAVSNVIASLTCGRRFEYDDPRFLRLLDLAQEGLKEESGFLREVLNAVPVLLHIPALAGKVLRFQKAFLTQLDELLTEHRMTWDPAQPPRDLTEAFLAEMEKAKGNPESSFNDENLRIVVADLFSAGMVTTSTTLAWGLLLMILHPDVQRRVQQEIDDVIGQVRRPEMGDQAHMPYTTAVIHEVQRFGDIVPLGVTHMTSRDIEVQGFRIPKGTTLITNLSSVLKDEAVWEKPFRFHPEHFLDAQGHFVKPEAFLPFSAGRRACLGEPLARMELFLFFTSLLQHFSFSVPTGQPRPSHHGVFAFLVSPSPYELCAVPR

O=C(Nc1ccccc1)C1CCN(C(=O)Oc2cccnc2)CC1 [ASP8477, 3‐pyridyl 4‐(phenylcarbamoyl)piperidine‐1‐carboxylate]
Ki [1]: 15 µM
R value (FDA) ([1]; ASP8477 20 mg QD): 1.074
R value (EMA) ([1]; ASP8477 20 mg QD): 0.011
R value (FDA) ([1]; ASP8477 60 mg QD): 1.385
R value (EMA) ([1]; ASP8477 60 mg QD): 0.06
Ki [2]: 8 µM
R value (FDA) ([2]; ASP8477 20 mg QD): 1.140
R value (EMA) ([2]; ASP8477 20 mg QD): 0.021
R value (FDA) ([2]; ASP8477 60 mg QD): 1.723
R value (EMA) ([2]; ASP8477 60 mg QD): 0.11
Ki [3]: 1000 nM
R value (FDA) ([3]; ASP8477 20 mg QD): 2.116
R value (EMA) ([3]; ASP8477 20 mg QD): 0.167
R value (FDA) ([3]; ASP8477 60 mg QD): 6.781
R value (EMA) ([3]; ASP8477 60 mg QD): 0.87
Ki [4]: 9.8 µM
R value (FDA) ([4]; ASP8477 20 mg QD): 1.114
R value (EMA) ([4]; ASP8477 20 mg QD): 0.017
R value (FDA) ([4]; ASP8477 60 mg QD): 1.590
R value (EMA) ([4]; ASP8477 60 mg QD): 0.09
Ki [5]: 18 µM
R value (FDA) ([5]; ASP8477 20 mg QD): 1.062
R value (EMA) ([5]; ASP8477 20 mg QD): 0.009
R value (FDA) ([5]; ASP8477 60 mg QD): 1.321
R value (EMA) ([5]; ASP8477 60 mg QD): 0.05
dose proportionality of Cmax and AUCtau ([6]; 20, 60, 100 mg once daily): more than dose‐proportional
Ctrough ([6]; Day 14, 60 mg ASP8477 qd): 91 ± 110 ng/mL
Ctrough ([6]; Day 23, 100 mg ASP8477 qd): 740 ± 640 ng/mL
AUC [6, 15]: 1600 ± 710 ng·h/mL
Cmax [6, 15]: 400 ± 120 ng/mL
Tmax [6, 15]: 1 h
Cmax [6, 16]: 2000 ± 490 ng/mL
Tmax [6, 16]: 2 h
Cmax [6, 17]: 4200 ± 1200 ng/mL
Tmax [6, 17]: 2 h
tolerability ([7]; ASP8477 in conjunction with cocktail probes, healthy female subjects): generally well tolerated
fatigue of moderate intensity (most frequent moderate AE) ([7]; all dose levels): 5 subjects
discontinuation due to an AE (emotional lability, moderate) ([7]; day 15, at the 60 mg level): 1 subject
AEs considered possibly or probably related to study drug ([7]; following 20 mg ASP8477): 11 subjects
AEs considered possibly or probably related to study drug ([7]; following 60 mg ASP8477): 11 subjects
AEs considered possibly or probably related to study drug ([7]; following 100 mg ASP8477): 13 subjects
serious AEs or deaths ([7]; whole study): No serious AEs or deaths
fraction of unbound ASP8477 [8]: 15%
effect on the induction of CYP enzymes [9]: No clinically relevant effect
steady state achieved (mean trough concentration‐time profiles) ([10]; 20 mg once daily): 1 days
steady state achieved (mean trough concentration‐time profiles) ([10]; 60 mg once daily): 3 days
steady state achieved (mean trough concentration‐time profiles) ([10]; 100 mg once daily): 10 days
dose excreted in urine as unchanged drug [10]: Approximately 1%
in vivo CYP inhibition class (FDA guidance, AUC of probe substrate) ([11]; 20 mg dose level): no effect
in vivo CYP inhibition class (FDA guidance, AUC of probe substrate) ([11]; 60 mg dose level): weak (1.25‐ to <2‐fold)
in vivo CYP inhibition class (FDA guidance, AUC of probe substrate) ([11]; 100 mg dose level): weak (1.25‐ to <2‐fold)
overall in vivo inhibitor class ([11]; doses from 20 to 100 mg): weak (1.25‐ to <2‐fold)
in vivo CYP inhibition class (FDA guidance, AUC of probe substrate) ([12]; 60 mg dose level): weak (1.25‐ to <2‐fold)
in vivo CYP inhibition class (FDA guidance, AUC of probe substrate) ([12]; 100 mg dose level): weak (1.25‐ to <2‐fold)
overall in vivo inhibitor class ([12]; doses from 20 to 100 mg): weak (1.25‐ to <2‐fold)
in vivo CYP inhibition class (FDA guidance, AUC of probe substrate) ([13]; 20 mg dose level): moderate (2‐ to <5‐fold)
in vivo CYP inhibition class (FDA guidance, AUC of probe substrate) ([13]; 60 mg dose level): moderate (2‐ to <5‐fold)
in vivo CYP inhibition class (FDA guidance, AUC of probe substrate) ([13]; 100 mg dose level): strong (≥5‐fold)
overall in vivo inhibitor class ([13]; doses from 20 to 100 mg): moderate to strong
in vivo CYP inhibition class (FDA guidance, AUC of probe substrate) ([14]; 20 mg dose level): weak (1.25‐ to <2‐fold)
in vivo CYP inhibition class (FDA guidance, AUC of probe substrate) ([14]; 60 mg dose level): moderate (2‐ to <5‐fold)
in vivo CYP inhibition class (FDA guidance, AUC of probe substrate) ([14]; 100 mg dose level): strong (≥5‐fold)
overall in vivo inhibitor class ([14]; doses from 20 to 100 mg): weak to strong
